Source: patent publication US20230407243A1, “GENETIC PLATFORM TO INVESTIGATE THE FUNCTIONS OF BACTERIAL DRUG EFFLUX PUMPS” (priority 2022, published 2023)
“And” between values parts separate entries of the source, which are not always exact repeats. Identical values can stand only once.

Legend:
Format in all cases: cell-based, Escherichia coli
[1] = tested on: EKO-35 porinated strain expressing acrF (AcrEF); assay: Checkerboard synergy (FICI), porinated strain; conditions: for PABN MICa Alone: PAβN alone, one value per checkerboard
Procedure, shortened: (§1)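 Read-out was OD600, the MIC being the lowest concentration without growth in a CLSI checkerboard run in MHB II. Each drug's MIC in combination was divided by its MIC alone and the two ratios summed as FICI. Cut-offs: <0.5 synergy, >0.5–1.0 additive, >1.0–2.0 indifferent, >2.0 antagonism.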

[2] = tested on: EKO-35 porinated strain expressing acrD; assay: Checkerboard synergy (FICI), porinated strain
Procedure, shortened: as §1

[3] = tested on: EKO-35-Pore strains producing other efflux pumps; assay: Checkerboard synergy (FICI), porinated strain
Procedure, shortened: as §1

EKO-35 tufA (pCA24N) = assay: MIC of strains harboring ASKA plasmids; conditions: 0.1 mM IPTG; for MIC, EKO-35 tufA (pCA24N), Chlor +: 4 μg/mL chloramphenicol selection; for MIC, EKO-35 tufA (pCA24N), Chlor −: no plasmid selection; for MIC: EKO-35 tufA
EKO-35 pitA (pCA24N) = assay: MIC of strains harboring ASKA plasmids; conditions: 0.1 mM IPTG; for MIC, EKO-35 pitA (pCA24N), Chlor −: no plasmid selection
EKO-35 yjfC (pCA24N) = assay: MIC of strains harboring ASKA plasmids; conditions: 0.1 mM IPTG; for MIC, EKO-35 yjfC (pCA24N), Chlor +: 4 μg/mL chloramphenicol selection; for MIC, EKO-35 yjfC (pCA24N), Chlor −: no plasmid selection; for MIC: EKO-35 yjfC
[4] = EKO-35 acrEF Pore, NMP + antibiotic
[5] = EKO-35 acrEF Pore, PAβN + antibiotic
[6] = EKO-35 acrEF Pore, antibiotic alone (PAβN checkerboard)
[7] = EKO-35 acrEF Pore, antibiotic in combination with PAβN
[8] = strain EKO-35 acrEF Pore, NMP + antibiotic
[9] = strain EKO-35 acrEF Pore, antibiotic alone
[10] = strain EKO-35 acrEF Pore, antibiotic in combination with NMP
[11] = EKO-35 mdtEF Pore, NMP + antibiotic
[12] = EKO-35 mdtEF Pore, PAβN + antibiotic
[13] = EKO-35 mdtEF Pore, antibiotic alone (PAβN checkerboard)
[14] = EKO-35 mdtEF Pore, antibiotic in combination with PAβN
[15] = strain EKO-35 mdtEF Pore, NMP + antibiotic
[16] = strain EKO-35 mdtEF Pore, antibiotic alone
[17] = strain EKO-35 mdtEF Pore, antibiotic in combination with NMP
[18] = EKO-35 acrD Pore, PAβN + antibiotic
[19] = strain EKO-35 acrD Pore, NMP + antibiotic

## phenylalanine-arginine-β-naphthylamide [PAβN]
[1]; EKO-35 acrEF Pore
  PABN MICa Alone: 64 µg/mL
[1]; EKO-35 acrEF Pore, listed as PABN
  PABN MICa Alone: 128 µg/mL
[1]; EKO-35 acrEF Pore, with Ciprofloxacin
  PABN MICa Combined: 16 µg/mL
[1]; EKO-35 acrEF Pore, with Erythromycin
  PABN MICa Combined: 16 µg/mL
[1]; EKO-35 acrEF Pore, with Fusidic Acid
  PABN MICa Combined: 8 µg/mL
[1]; EKO-35 acrEF Pore, with Oxacillin
  PABN MICa Combined: 32 µg/mL
[2]; EKO-35 acrD Pore, PAβN alone, one value per checkerboard, listed as PABN
  PABN MICa Alone: 32 µg/mL and 64 µg/mL
[2]; EKO-35 acrD Pore, with Fusidic Acid
  PABN MICa Combined: 8 µg/mL
[2]; EKO-35 acrD Pore, with Novobiocin
  PABN MICa Combined: 16 µg/mL
[2]; EKO-35 acrD Pore, with Oxacillin
  PABN MICa Combined: 16 µg/mL
[3]; EKO-35 mdtEF Pore, PAβN alone, one value per checkerboard
  PABN MICa Alone: 64 µg/mL
[3]; EKO-35 mdtEF Pore, with Erythromycin
  PABN MICa Combined: 32 µg/mL
[3]; EKO-35 mdtEF Pore, with Fusidic Acid
  PABN MICa Combined: 8 µg/mL

## Cn1cc(Br)c(-c2cccc(NC(=O)Nc3ccc(OC(F)(F)F)cc3)c2)n1 [compound 14]
EKO-35 tufA (pCA24N)
  MIC, EKO-35 tufA (pCA24N), Chlor +: >5 μg/mL
  MIC, EKO-35 tufA (pCA24N), Chlor −: >5 μg/mL
EKO-35 pitA (pCA24N)
  MIC, EKO-35 pitA (pCA24N), Chlor −: >5 μg/mL
EKO-35 yjfC (pCA24N)
  MIC, EKO-35 yjfC (pCA24N), Chlor +: >5 μg/mL
  MIC, EKO-35 yjfC (pCA24N), Chlor −: >5 μg/mL

## COc1cc(Cc2cnc(N)nc2N)cc(OC)c1OC [trimethoprim]
EKO-35 yjfC (pCA24N); Chlor + (4 μg/mL)
  MIC: 0.391 µg/mL

## N#Cc1ccc(-c2c(NC(=O)C(Cl)Cl)oc(-c3cccs3)c2C#N)cc1 [compound 2]
EKO-35 tufA (pCA24N)
  MIC, EKO-35 tufA (pCA24N), Chlor +: >5 μg/mL
  MIC, EKO-35 tufA (pCA24N), Chlor −: >5 μg/mL
EKO-35 pitA (pCA24N)
  MIC, EKO-35 pitA (pCA24N), Chlor −: >5 μg/mL
EKO-35 yjfC (pCA24N)
  MIC, EKO-35 yjfC (pCA24N), Chlor +: >5 μg/mL
  MIC, EKO-35 yjfC (pCA24N), Chlor −: >5 μg/mL

## benzalkonium chloride
EKO-35 tufA (pCA24N); Chlor + (4 μg/mL)
  MIC: 0.781 µg/mL
EKO-35 tufA (pCA24N); Chlor −
  MIC: 0.781 µg/mL
EKO-35 pitA (pCA24N); EKO-35 pitA, Chlor −
  MIC: 0.781 µg/mL
EKO-35 yjfC (pCA24N); Chlor + (4 μg/mL)
  MIC: 0.781 µg/mL
EKO-35 yjfC (pCA24N); Chlor −
  MIC: 0.781 µg/mL

## CC[C@H]1OC(=O)[C@H](C)[C@@H](O[C@H]2C[C@@](C)(OC)[C@@H](O)[C@H](C)O2)[C@H](C)[C@@H](O[C@@H]2O[C@H](C)C[C@H](N(C)C)[C@H]2O)[C@](C)(O)C[C@@H](C)C(=O)[C@H](C)[C@@H](O)[C@]1(C)O [erythromycin]
[1]; [4]
  Effect: Additive
  FICI: 0.750
[1]; [5]
  Effect: Synergistic
  FICI: 0.385
[1]; [6]
  MICb Alone: 0.5 µg/mL
[1]; [7]
  MICb Combined: 0.13 µg/mL
[1]; [8]
  Effect: Additive (additive (FICI >0.5-1.0))
  FICI: 0.750
[1]; [9]
  MICb Alone: 1 µg/mL
[1]; [10]
  MICb Combined: 0.5 µg/mL
[2]; acrD expressed in the porinated strain
  interaction of PAβN in combination with the labelled antibiotic (FICI): still observed
[3]; [11]
  Effect: Additive
[3]; [12]
  Effect: Synergistic
  FICI: 0.185
[3]; [13]
  MICb Alone: 1 µg/mL
[3]; [14]
  MICb Combined: 0.06 µg/mL
[3]; [15]
  Effect: Additive (additive (FICI >0.5-1.0))
[3]; [16]
  MICb Alone: 8 µg/mL
[3]; [17]
  MICb Combined: 1 µg/mL

## CC(=O)O[C@H]1C[C@@]2(C)[C@@H](C[C@@H](O)[C@H]3[C@@]4(C)CC[C@@H](O)[C@@H](C)[C@@H]4CC[C@@]32C)/C1=C(\CCC=C(C)C)C(=O)O [fusidic acid]
[1]; [4]
  Effect: Additive
[1]; [5]
  Effect: Synergistic
  FICI: 0.313
[1]; [6]
  MICb Alone: 4 µg/mL
[1]; [7]
  MICb Combined: 1 µg/mL
[1]; [8]
  Effect: Additive (additive (FICI >0.5-1.0))
[1]; [9]
  MICb Alone: 2 µg/mL
[1]; [10]
  MICb Combined: 1 µg/mL
[2]; EKO-35 acrD Pore, NMP + antibiotic
  FICI: 1.000
[2]; [18]
  Effect: Synergistic
  FICI: 0.250
[2]; EKO-35 acrD Pore, antibiotic alone (PAβN checkerboard)
  MICb Alone: 64 µg/mL
[2]; EKO-35 acrD Pore, antibiotic in combination with PAβN
  MICb Combined: 8 µg/mL
[2]; [19]
  Effect: — (indifferent (FICI >1.0))
  FICI: 1.000
[2]; strain EKO-35 acrD Pore, antibiotic alone
  MICb Alone: 64 µg/mL
[2]; strain EKO-35 acrD Pore, antibiotic in combination with NMP
  MICb Combined: 32 µg/mL
[3]; [11]
  Effect: Additive
  FICI: 0.750
[3]; [12]
  Effect: Synergistic
  FICI: 0.250
[3]; [13]
  MICb Alone: 16 µg/mL
[3]; [14]
  MICb Combined: 2 µg/mL
[3]; [15]
  Effect: Additive (additive (FICI >0.5-1.0))
  FICI: 0.750
[3]; [16]
  MICb Alone: 8 µg/mL
[3]; [17]
  MICb Combined: 2 µg/mL

## O=C(Nc1ccccc1C(=O)Nc1nnc(C(F)(F)F)s1)c1ccccc1Cl [compound 19]
EKO-35 tufA (pCA24N)
  MIC, EKO-35 tufA (pCA24N), Chlor +: >5 μg/mL
  MIC, EKO-35 tufA (pCA24N), Chlor −: >5 μg/mL
EKO-35 pitA (pCA24N)
  MIC, EKO-35 pitA (pCA24N), Chlor −: >5 μg/mL
EKO-35 yjfC (pCA24N)
  MIC, EKO-35 yjfC (pCA24N), Chlor +: >5 μg/mL
  MIC, EKO-35 yjfC (pCA24N), Chlor −: >5 μg/mL
